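Where inhibition never reached the appropriate level, the endpoint shown equals the highest concentration tested. Otherwise, values were interpolated linearly from a five-concentration, 48-hour dose response in 96-well plates. Abbreviation: GI50, concentration required for 50% inhibition of growth. TGI: concentration producing complete growth inhibition.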
How the values were obtained:
Assay in all cases: NCI-60 cell line screen, 48 h
COLO 205 colon = test system: COLO 205 colon
HCT-15 colon = test system: HCT-15 colon
K-562 leukemia = test system: K-562 leukemia
M14 melanoma = test system: M14 melanoma
MDA-N = test system: MDA-N
OVCAR-8 ovarian = test system: OVCAR-8 ovarian
SF-539 CNS = test system: SF-539 CNS
SR leukemia = test system: SR leukemia
UACC-257 melanoma = test system: UACC-257 melanoma
HOP-92 NSCLC = test system: HOP-92 NSCLC
NCI-H226 lung = test system: NCI-H226 lung

## N#C/C=c1/c2ccccc2n2nc3ccccc3c12
COLO 205 colon
  TGI: 85.3 µM
HCT-15 colon
  TGI: > 100 µM
K-562 leukemia
  TGI: > 100 µM
M14 melanoma
  TGI: > 100 µM
MDA-N
  TGI: > 100 µM
OVCAR-8 ovarian
  TGI: > 100 µM
SF-539 CNS
  TGI: 37.6 µM
SR leukemia
  TGI: > 100 µM
UACC-257 melanoma
  TGI: > 100 µM

## C=C1C(=O)[C@]23C[C@H]1C[C@@H](O)[C@H]2[C@]1(COC3=O)[C@@H](OC(C)=O)CC[C@@](C)(COC(C)=O)[C@H]1C=O
COLO 205 colon
  TGI: 16.4 µM
HCT-15 colon
  TGI: > 50 µM
HOP-92 NSCLC
  TGI: 22.3 µM
K-562 leukemia
  TGI: 14.1 µM
MDA-N
  TGI: > 50 µM
NCI-H226 lung
  TGI: 19 µM
OVCAR-8 ovarian
  TGI: > 50 µM
SR leukemia
  TGI: > 50 µM
UACC-257 melanoma
  TGI: > 50 µM

## COc1cc(N)c2[nH]c3c(C)ccc(C)c3c2c1
COLO 205 colon
  TGI: > 100 µM
HCT-15 colon
  TGI: > 100 µM
K-562 leukemia
  TGI: > 100 µM
M14 melanoma
  TGI: > 100 µM
NCI-H226 lung
  TGI: > 100 µM
OVCAR-8 ovarian
  TGI: > 100 µM
SF-539 CNS
  TGI: > 100 µM
SR leukemia
  TGI: > 100 µM
UACC-257 melanoma
  TGI: > 100 µM

## COC(=O)[C@@H]1[C@H](O)CCC2=C(CC(=O)c3ccoc3)[C@H](C)CC[C@]21C
COLO 205 colon
  TGI: > 50 µM
HCT-15 colon
  TGI: > 50 µM
HOP-92 NSCLC
  TGI: > 50 µM
K-562 leukemia
  TGI: > 50 µM
M14 melanoma
  TGI: > 50 µM
MDA-N
  TGI: > 50 µM
NCI-H226 lung
  TGI: > 50 µM
OVCAR-8 ovarian
  TGI: > 50 µM
SF-539 CNS
  TGI: > 50 µM
UACC-257 melanoma
  TGI: > 50 µM

## C=CCNc1nc(O)c(/C=C2\C=Nc3ncccc32)s1
HCT-15 colon
  GI50: 2.62 µM
  TGI: > 100 µM
HOP-92 NSCLC
  GI50: 0.227 µM
  TGI: 6.38 µM
K-562 leukemia
  GI50: 4.26 µM
  TGI: > 100 µM
M14 melanoma
  GI50: 3.45 µM
  TGI: 13.1 µM
NCI-H226 lung
  GI50: 1.99 µM
  TGI: 21.6 µM
OVCAR-8 ovarian
  GI50: 3.41 µM
  TGI: 10.3 µM
SF-539 CNS
  GI50: 0.524 µM
  TGI: 2.06 µM
SR leukemia
  GI50: 0.408 µM
  TGI: 88.3 µM
UACC-257 melanoma
  GI50: 9.12 µM
  TGI: 21.2 µM

## CC(C)(C)c1ccc(O)c(C(c2ccc([N+](=O)[O-])cc2)c2cc(C(C)(C)C)ccc2O)c1
COLO 205 colon
  TGI: 5.8 µM
HCT-15 colon
  TGI: 4.27 µM
HOP-92 NSCLC
  TGI: 3.7 µM
K-562 leukemia
  TGI: 7.35 µM
M14 melanoma
  TGI: 3.16 µM
NCI-H226 lung
  TGI: 3.51 µM
OVCAR-8 ovarian
  TGI: 7.82 µM
SF-539 CNS
  TGI: 3.46 µM
SR leukemia
  TGI: 5.47 µM
UACC-257 melanoma
  TGI: 3.41 µM

## CC(=O)Oc1c2c(c(OC(C)=O)c3c1n(C(C)=O)c1ccccc1n3C(C)=O)n(C(C)=O)c1ccccc1n2C(C)=O
HCT-15 colon
  TGI: 13 µM
K-562 leukemia
  TGI: > 100 µM
M14 melanoma
  TGI: 20.7 µM
SF-539 CNS
  TGI: 30.8 µM
SR leukemia
  TGI: 7.69 µM
UACC-257 melanoma
  TGI: 13 µM

## C[C@]12C(=O)C=CCC1=CC[C@@H]1[C@@H]2[C@H]2CC3(O)C(=O)O[C@@]4(C)[C@H]5C[C@@]6(C)[C@@H]7[C@@]2(O)[C@]1(OC[C@H]6C(=O)O5)O[C@]734 (stereo partly specified)
COLO 205 colon
  TGI: > 100 µM
HCT-15 colon
  TGI: > 100 µM
HOP-92 NSCLC
  TGI: > 100 µM
K-562 leukemia
  TGI: > 100 µM
M14 melanoma
  TGI: > 100 µM
MDA-N
  TGI: > 100 µM
OVCAR-8 ovarian
  TGI: > 100 µM
SF-539 CNS
  TGI: 42.9 µM
SR leukemia
  TGI: 75.2 µM
UACC-257 melanoma
  TGI: > 100 µM

## COc1ccc(C2S/C(=C\c3cccc(OC)c3)C(=O)N2NC(=O)Cc2ccccc2)cc1 (stereo unspecified)
COLO 205 colon
  TGI: > 100 µM
HCT-15 colon
  TGI: > 100 µM
HOP-92 NSCLC
  TGI: > 100 µM
K-562 leukemia
  TGI: > 100 µM
M14 melanoma
  TGI: > 100 µM
NCI-H226 lung
  TGI: > 100 µM
OVCAR-8 ovarian
  TGI: > 100 µM
SF-539 CNS
  TGI: > 100 µM
SR leukemia
  TGI: > 100 µM
UACC-257 melanoma
  TGI: > 100 µM

## CC(=O)NNC(=S)/N=C\c1c(O)c2ccccc2oc1=O
COLO 205 colon
  TGI: > 100 µM
HCT-15 colon
  TGI: > 100 µM
K-562 leukemia
  TGI: > 100 µM
M14 melanoma
  TGI: > 100 µM
MDA-N
  TGI: > 100 µM
NCI-H226 lung
  TGI: > 100 µM
OVCAR-8 ovarian
  TGI: > 100 µM
SF-539 CNS
  TGI: > 100 µM
SR leukemia
  TGI: > 100 µM
UACC-257 melanoma
  TGI: > 100 µM

Reference: PubChem BioAssay (NCI)
